Test results from ChEMBL document CHEMBL1201862, “PubChem BioAssay data set” (2004).
Activity calls are given as the source filed them.

Columns and labels:
Cytochrome P450 1A2 = biological target: T1, Cytochrome P450 1A2 (Homo sapiens, UniProt P05177);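 note: PubChem cytochrome P450 panel assay, CYP1A2 panel member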
T1 sequence (P05177 whole entry): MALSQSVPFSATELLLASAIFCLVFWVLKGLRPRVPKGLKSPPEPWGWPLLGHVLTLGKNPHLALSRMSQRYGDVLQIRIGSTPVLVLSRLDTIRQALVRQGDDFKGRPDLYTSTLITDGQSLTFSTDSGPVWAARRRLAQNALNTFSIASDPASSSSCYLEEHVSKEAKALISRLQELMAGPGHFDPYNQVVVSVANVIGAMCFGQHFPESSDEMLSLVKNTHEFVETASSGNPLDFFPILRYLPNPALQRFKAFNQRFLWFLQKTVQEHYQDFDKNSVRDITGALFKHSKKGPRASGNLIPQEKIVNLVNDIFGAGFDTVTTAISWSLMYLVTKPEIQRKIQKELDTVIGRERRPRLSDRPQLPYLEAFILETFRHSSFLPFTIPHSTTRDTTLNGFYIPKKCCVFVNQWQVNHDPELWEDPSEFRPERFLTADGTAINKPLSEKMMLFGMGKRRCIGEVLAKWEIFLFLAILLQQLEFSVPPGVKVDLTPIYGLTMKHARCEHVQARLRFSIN

[1] = growth suppression of beta-catenin-knockout colon cells, dose response, cell-based, HCT116, human colon tumor (AID 1045); type: functional;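 note: HCT116 colon tumor cells with beta catenin knocked out; cells exposed to compound for 60 hours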
INS1 = assay: beta cell apoptosis inhibitors, cytokine rescue, dose response, luminescence, retest (AID 449756); type: functional, cell-based; details: Rattus norvegicus;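 note: cell death triggered by IL-1 beta plus TNF-alpha plus IFN-gamma mixture; protective hits raise ATP signal compared with cytokine alone wells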
[2] = microbe, parasite or virus in culture; type: functional; details: Mycobacterium tuberculosis
Cytochrome P450 3A4 = Cytochrome P450 3A4 (Homo sapiens, UniProt P08684);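 note: CYP3A4 tested as one member of a cytochrome P450 panel screen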
H4 = assay: Luminescence Cell-Based Dose Response HTS to Identify Activators of 5'UTR Stem-Loop Driven Prion Protein mRNA Translation in H4 Neuroglioblastoma Cells. [Related pubchem assays: 1829 (Project Summary), 1814 (Primary HTS)]; type: functional; details: Homo sapiens
[3] = Luminescence Cell-Based Dose Response HTS to Identify Activators of Luciferase Translation or Activity in H4 […] Cells. [Related pubchem assays: 1829 (Project Summary), 1814 (Primary HTS)]; type: functional
[4] = HEp-2 cell cytotoxicity, dose response, cytotoxicity control for RSV inhibitor project, HTS (AID 2410); type: functional; details: human respiratory syncytial virus
[5] = Luminescence Cell-Based Dose Retest to Confirm Inhibitors of Cancer Stem Cells. [Related pubchem assays (depositor defined):AID2717, AID2721]; type: functional; details: Homo sapiens
Streptokinase A = biological target: T2, Streptokinase A (Streptococcus pyogenes serotype M1, UniProt P10520); assay: S. pyogenes streptokinase expression inhibitors, potency, dose response, plasminogen activation absorbance, OD405 (AID 1914); type: functional, Streptococcus pyogenes M1 GAS;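 note: secreted streptokinase activity via plasminogen activation per viability signal from cell pellet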
T2 sequence (P10520 whole entry): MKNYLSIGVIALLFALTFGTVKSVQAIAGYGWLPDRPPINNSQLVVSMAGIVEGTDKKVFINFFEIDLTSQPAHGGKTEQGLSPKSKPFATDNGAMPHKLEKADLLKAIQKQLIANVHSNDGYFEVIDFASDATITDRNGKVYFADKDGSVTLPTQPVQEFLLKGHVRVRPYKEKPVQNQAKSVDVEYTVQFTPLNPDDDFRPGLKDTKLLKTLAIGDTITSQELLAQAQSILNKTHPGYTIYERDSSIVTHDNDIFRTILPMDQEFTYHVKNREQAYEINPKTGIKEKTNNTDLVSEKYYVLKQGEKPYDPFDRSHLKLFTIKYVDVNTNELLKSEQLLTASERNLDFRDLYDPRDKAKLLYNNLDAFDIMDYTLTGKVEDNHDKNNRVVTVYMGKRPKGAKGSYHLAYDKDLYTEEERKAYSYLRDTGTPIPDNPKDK

[6] = inhibitors of firefly luciferase expression or activity, dose response, H4 neuroglioma cells, luminescence (AID 1990); type: functional, cell-based
[7] = Luminescence Cell-Based Dose Response HTS to Identify Inhibitors of 5'UTR Stem-Loop Driven Prion Protein mRNA Translation in H4 Neuroglioblastoma Cells. [Related pubchem assays: 1827 (Project Summary), 1813 (Primary HTS)]; type: functional
[8] = inhibitors of SNCA 5'UTR-driven reporter translation, confirmation, H4 neuroglioma cells, luminescence (AID 1988); type: functional, cell-based
Streptococcus = assay: Group A Streptococcus viability loss, dose response, counter-screen for streptokinase expression inhibitor project, luminescence, BacTiterGlo (AID 1915); type: functional, organism-based;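 note: potency for reduction of bacterial viability or growth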
[9] = test system: Streptococcus sp. 'group A'; assay: growth inhibition of control SK(-) GAS strain, dose response, counter-screen for streptokinase expression inhibitor project, luminescence, kanamycin, BacTiterGlo, confirmation (AID 1900); type: functional, organism-based
Cytochrome P450 2D6 = Cytochrome P450 2D6 (Homo sapiens, UniProt P10635);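 note: CYP2D6 member of a cytochrome P450 panel assay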
Cytochrome P450 2C19 = Cytochrome P450 2C19 (Homo sapiens, UniProt P33261); assay: Cytochrome panel assay with activity outcomes. Panel member name: p450-cyp2c19 Compounds with AC50 equal or less than 10 uM are considered active; type: functional
[10] = NIH-3T3 fibroblast cytotoxicity, dose response, cytotoxicity control, cell-based, fluorescence, Alamar Blue, secondary assay (AID 2327); type: functional;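 note: NIH-3T3 mouse fibroblasts cultured with fluconazole at 8 µg/mL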
[11] = C. albicans growth with fluconazole, confirmation, fluorescence, retest (AID 2467); type: functional, cell-based
Paired box protein Pax-8 = Paired box protein Pax-8 (Homo sapiens, UniProt Q06710); assay: inhibitors of PAX8-driven TPO luciferase reporter, dose response, RMG-I cells, cherry-pick (AID 687027); type: functional, cell-based;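 note: luciferase reporter driven by Pax8 target thyroperoxidase promoter measured by SteadyGlo luminescence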
Paired box protein Pax-8, sequence (Q06710 whole entry): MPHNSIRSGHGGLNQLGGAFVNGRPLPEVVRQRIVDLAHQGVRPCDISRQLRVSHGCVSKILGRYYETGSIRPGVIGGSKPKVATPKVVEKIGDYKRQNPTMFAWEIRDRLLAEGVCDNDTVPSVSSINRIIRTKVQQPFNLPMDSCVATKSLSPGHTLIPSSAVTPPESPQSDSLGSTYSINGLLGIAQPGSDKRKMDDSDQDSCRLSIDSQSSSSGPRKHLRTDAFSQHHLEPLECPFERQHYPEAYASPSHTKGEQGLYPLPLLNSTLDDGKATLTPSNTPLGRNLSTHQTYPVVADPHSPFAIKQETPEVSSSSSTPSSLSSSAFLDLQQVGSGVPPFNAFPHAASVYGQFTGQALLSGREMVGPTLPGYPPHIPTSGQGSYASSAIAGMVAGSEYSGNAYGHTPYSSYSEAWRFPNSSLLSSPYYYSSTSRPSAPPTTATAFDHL

Cytochrome P450 3A4, sequence (P08684 whole entry): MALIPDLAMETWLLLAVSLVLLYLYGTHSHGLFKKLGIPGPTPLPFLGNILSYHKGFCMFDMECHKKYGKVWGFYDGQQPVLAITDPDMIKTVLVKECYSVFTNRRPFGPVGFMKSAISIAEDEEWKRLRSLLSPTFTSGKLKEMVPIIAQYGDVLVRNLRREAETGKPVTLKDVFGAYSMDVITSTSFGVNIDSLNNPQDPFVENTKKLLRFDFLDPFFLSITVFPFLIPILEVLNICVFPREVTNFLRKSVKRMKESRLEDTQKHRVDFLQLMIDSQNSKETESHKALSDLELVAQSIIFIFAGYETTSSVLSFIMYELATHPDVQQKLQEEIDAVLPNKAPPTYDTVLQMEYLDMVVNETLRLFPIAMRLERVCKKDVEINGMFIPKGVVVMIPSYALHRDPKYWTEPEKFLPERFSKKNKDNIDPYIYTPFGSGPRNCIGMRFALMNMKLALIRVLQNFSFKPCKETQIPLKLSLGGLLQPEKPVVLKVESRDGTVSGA
Cytochrome P450 2C19, sequence (P33261 whole entry): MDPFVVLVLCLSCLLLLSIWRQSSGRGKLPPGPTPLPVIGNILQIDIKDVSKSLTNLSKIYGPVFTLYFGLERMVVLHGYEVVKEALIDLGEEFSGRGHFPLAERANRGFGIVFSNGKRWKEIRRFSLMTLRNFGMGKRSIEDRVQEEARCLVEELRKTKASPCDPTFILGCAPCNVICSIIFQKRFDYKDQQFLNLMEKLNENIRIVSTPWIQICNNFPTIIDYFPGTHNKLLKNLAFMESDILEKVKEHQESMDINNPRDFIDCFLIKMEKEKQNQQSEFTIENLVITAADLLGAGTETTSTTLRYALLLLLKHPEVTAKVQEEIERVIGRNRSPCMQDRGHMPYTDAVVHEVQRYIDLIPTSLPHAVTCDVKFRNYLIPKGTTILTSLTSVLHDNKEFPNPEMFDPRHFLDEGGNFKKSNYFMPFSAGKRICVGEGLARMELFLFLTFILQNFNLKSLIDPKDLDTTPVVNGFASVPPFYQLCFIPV
Cytochrome P450 2D6, sequence (P10635 whole entry): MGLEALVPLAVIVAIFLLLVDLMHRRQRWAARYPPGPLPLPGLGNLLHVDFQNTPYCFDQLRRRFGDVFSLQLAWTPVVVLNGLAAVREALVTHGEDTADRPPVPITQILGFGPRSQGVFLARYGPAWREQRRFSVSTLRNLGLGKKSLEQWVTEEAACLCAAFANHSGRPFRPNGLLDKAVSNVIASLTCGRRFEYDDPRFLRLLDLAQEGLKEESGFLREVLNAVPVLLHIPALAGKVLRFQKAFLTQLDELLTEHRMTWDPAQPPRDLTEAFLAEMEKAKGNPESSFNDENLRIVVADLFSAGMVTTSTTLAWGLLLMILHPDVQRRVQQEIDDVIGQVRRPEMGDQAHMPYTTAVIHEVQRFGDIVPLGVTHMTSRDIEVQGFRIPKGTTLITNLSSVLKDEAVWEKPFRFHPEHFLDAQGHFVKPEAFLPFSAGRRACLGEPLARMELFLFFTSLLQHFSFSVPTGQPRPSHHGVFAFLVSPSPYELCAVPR

COCCSc1nnc(NC(=O)C(C)(C)C)s1
AC50 (Cytochrome P450 1A2): 25.1 µM (inconclusive)

CCC(C)C1C(C#N)=C(N)Oc2[nH]nc(C)c21 (stereo not drawn)
EC50 [1]: 189 µM (active)

Cn1c(=O)c(-c2ccc(Cl)cc2)nc2cnc(Nc3ccccc3)nc21
AC50 (Cytochrome P450 1A2): 31.6 µM (inconclusive)

CCCC1CCC(c2ccc(C(=O)NN)cc2)CC1 (stereo not drawn)
AC50 (INS1): 10.9 µM (active)

CC1CCc2c(sc3ncnc(NCCCOC(C)C)c23)C1 (stereo not drawn)
CC50 [2]: > 40 µM (active)

COc1ccc(COC(=O)N/N=C2/C[C@@H](O)[C@@H](O)[C@@H]3[C@H]4C(=O)N(c5ccc(F)cc5F)C(=O)[C@@H]4CC[C@H]23)cc1
AC50 (Cytochrome P450 3A4): 6.31 µM (inconclusive)

Oc1nc2c(-c3cccc(Br)c3)nnn2c2ccccc12
EC50 (H4): 18.8 µM (active)
EC50 [3]: 0.258 µM (active)

Cc1ccc2c(c1)N(C(=O)CCC(=O)N1CCN(c3cccc(C)c3C)CC1)CCO2
CC50 [4]: 5.57 µM (active)

CC1(C)C=Cc2c(ccc3c2OC[C@@H](c2ccc(O)cc2O)C3)O1 [GLABRIDIN]
AC50 [5]: 6.05 µM (active)
CC50 [4]: 13.4 µM (active)

Cc1cc(C)cc(NC(=O)NCC(O)COc2ccc([N+](=O)[O-])cc2)c1 (stereo not drawn)
CC50 [4]: > 50 µM (active)

Cc1ccc(CSCc2ccc(C(=O)NCCC(C)C)o2)cc1
CC50 [4]: 20.2 µM (active)

Cc1ccc(C(NC(=O)NC(C)c2ccccc2)C(Cl)(Cl)Cl)cc1F (stereo not drawn)
EC50 (Streptokinase A): 7.32 µM (active)
EC50 [6]: 12 µM (active)
EC50 [7]: 18.7 µM (active)
EC50 [8]: > 120 µM (not active)
EC50 (Streptococcus): 99.7 µM (active)
EC50 [9]: 3.25 µM (active)

COc1cc(/C=C/c2nc(O)nc(O)c2[N+](=O)[O-])ccc1OCCC(C)C
AC50 [5]: 5.94 µM (active)
CC50 [4]: 19.1 µM (active)

Oc1ncnc2c1sc1nc3c(c(-c4ccc(Cl)cc4)c12)CCC3
CC50 [4]: > 50 µM (active)

COC(=O)c1cn(S(=O)(=O)c2ccccc2)c2ccccc12
EC50 [6]: > 120 µM (not active)
EC50 [7]: > 120 µM (not active)
EC50 [8]: > 120 µM (not active)

CSc1ccccc1OCc1cc(C(=O)N2CCc3c(Cl)cccc3C2)no1
AC50 (INS1): 7.1 µM (active)

NC(=O)N/N=C/c1ccc2cccc(OCc3ccccc3)c2n1
EC50 [6]: 17.8 µM (active)
EC50 [7]: > 120 µM (not active)
EC50 [8]: 61 µM (active)

CCS(=O)(=O)c1ccc(OC)c(N=Nc2ccc(O)c3ncccc23)c1
AC50 (INS1): 8.44 µM (active)

CCC(=O)c1ccc(OCC(O)CN2CCCCC2)cc1.Cl (stereo not drawn)
AC50 (Cytochrome P450 2D6): 39.8 µM (inconclusive)
AC50 (Cytochrome P450 2C19): inconclusive

NC(CC(=O)Nc1cc(C(F)(F)F)ccc1Cl)=NO
AC50 (Cytochrome P450 3A4): 3.98 µM (inconclusive)
AC50 (Cytochrome P450 2C19): inconclusive

C/C(CCN1CCCCc2nc(C)c(C)cc21)=N\O[C@@H](C)CN1CCCCc2nc(C)c(C)cc21
AC50 (Cytochrome P450 2D6): 5.01 µM (inconclusive)

CCCc1ccc(C(=O)NNc2cccc(C)c2)cc1
EC50 [10]: 30.2 µM (active)
EC50 [11]: > 38 µM (not active)

COCCCNC(=O)Cn1nnc(-c2ccc(NC(=O)c3cccnc3)cc2)n1
AC50 (INS1): 3.95 µM (active)

Cc1cc(Nc2ccc(Br)cc2)nc(-c2ccccc2O)n1
CC50 [4]: 31.9 µM (active)

CN(C)c1nc(-c2ccoc2)nc2ccccc12
AC50 (Cytochrome P450 3A4): 25.1 µM (inconclusive)
AC50 (Cytochrome P450 2D6): 39.8 µM (inconclusive)
AC50 (Cytochrome P450 2C19; read-out: AC50): 31.6 µM (inconclusive)

Fc1cccc(CCN2CCNC[C@H]2Cc2cccc3ccccc23)c1
CC50 [2]: 26.2 µM (active)

Cc1cccc(NC(=O)c2[nH]cnc2C(=O)NCC(=O)OC(C)(C)C)c1
CC50 [4]: > 50 µM (active)

CCOC(=O)c1[nH]c(C)c(C(=O)C2=C(O)C(=O)N(CCN3CCOCC3)C2c2cccs2)c1C (stereo not drawn)
AC50 (Cytochrome P450 3A4): 14.1 µM (inconclusive)

Cc1ccc(S(=O)(=O)c2nc(Nc3nccs3)sc2Cl)cc1
CC50 [2]: > 40 µM (active)

COc1cc(OC)cc(N(C(=O)C2COc3ccccc3O2)C(C(=O)NC2CCCCC2)c2ccc(O)cc2)c1 (stereo not drawn)
EC50 [10]: 94.7 µM (active)
EC50 [11]: 0.798 µM (inconclusive)

c1ccc2nc(-c3ccncc3)ccc2c1
CC50 [4]: 25.4 µM (active)

CC(C)NC(=O)C(C)n1cccc1C(=O)c1ccccc1 (stereo not drawn)
AC50 (Cytochrome P450 3A4): 15.8 µM (inconclusive)

COc1cccc(/C=N/NC(=O)CCCC(=O)NC2CCCCC2)c1
EC50 [6]: > 120 µM (not active)
EC50 [7]: > 120 µM (not active)
EC50 [8]: 15.6 µM (active)

CC(=O)NCCNc1nc(-c2ccc(N(C)C)cc2)nc2ccccc12
AC50 (Cytochrome P450 3A4): 10 µM (inconclusive)
AC50 (Cytochrome P450 2D6): 20 µM (inconclusive)

COc1ccc(-c2nn(-c3ccccc3)cc2/C=C\C(=O)Nc2ccc(C(=O)O)cc2)cc1
CC50 [4]: 26.4 µM (active)

O=C(Nc1nc(-c2cc(Cl)sc2Cl)cs1)c1cccs1
CC50 [2]: 25.9 µM (active)
EC50 (Streptokinase A): > 50 µM (not active)
AC50 [5]: 1.13 µM (active)
EC50 (Streptococcus): 18.1 µM (active)
EC50 [9]: 14.2 µM (active)

Brc1ccccc1-c1nnc2sc(Cc3ccccc3)nn12
EC50 [6]: 64.7 µM (active)
EC50 [7]: > 120 µM (not active)
EC50 [8]: > 120 µM (not active)

N=C(NOC(=O)C12CC3CC(CC(C3)C1)C2)c1ccccc1
EC50 [1]: 90.5 µM (active)

CC(C)CCNC(=O)C(c1ccco1)N(Cc1ccc(F)cc1)C(=O)c1snc(C(N)=O)c1N (stereo not drawn)
EC50 [10]: 26.5 µM (active)
EC50 [11]: > 38 µM (not active)

COCCSc1nnc(NC(=O)CCS(=O)(=O)c2ccccc2)s1
EC50 [10]: > 150 µM (inactive)
EC50 [11]: 3.97 µM (active)

CC1CCCC=CC2CC(OC(=O)CN(C)C)CC2C(O)C=CC(=O)O1 (stereo not drawn)
AC50 (Paired box protein Pax-8): < 0.26 µM (active)

O=C(Nc1cnc2ccccc2c1)c1cccc(-n2cnnn2)c1
AC50 (Cytochrome P450 2D6): 7.94 µM (inconclusive)

COc1ccc(CN(C)C[C@H]2OCCCC[C@H](C)Oc3ccc(NC(=O)Nc4ccc(C(F)(F)F)cc4)cc3C(=O)N([C@H](C)CO)C[C@@H]2C)cc1
AC50 (Paired box protein Pax-8): 10.9 µM (active)

COc1ccc(C2C(C(=O)c3ccc(Cl)cc3)=C(O)C(=O)N2CCN2CCOCC2)c(OC)c1 (stereo not drawn)
AC50 (Cytochrome P450 3A4): 20 µM (inconclusive)
AC50 (Cytochrome P450 2C19; read-out: AC50): 39.8 µM (inconclusive)

CC(C)[C@H](N)c1nnc(SCc2ccc(Cl)cc2)o1
AC50 (Cytochrome P450 2D6): 28.2 µM (inconclusive)

Cc1ccc(C(=O)C[n+]2ccc(Cc3ccccc3)cc2)cc1
EC50 [6]: 14.3 µM (active)
EC50 [7]: 13.7 µM (active)
EC50 [8]: 10.5 µM (active)

O=C1CCCN1c1ccc(S(=O)(=O)Oc2cccc(Cl)c2)cc1[N+](=O)[O-]
AC50 (Cytochrome P450 2D6): 1.78 µM (inconclusive)

COc1cc(OC)c2cc(-c3ccncc3)cnc2c1
AC50 (Cytochrome P450 3A4): 0.316 µM (inconclusive)
AC50 (Cytochrome P450 2C19; read-out: AC50): 31.6 µM (inconclusive)

C[C@@H](NC(=O)c1[nH]cnc1C(=O)N[C@@H](Cc1ccccc1)C(=O)OC(C)(C)C)c1ccccc1
AC50 (Paired box protein Pax-8): 5.32 µM (active)

CCOc1ncccc1C(=O)Nc1ccc(F)cc1
CC50 [4]: 46.3 µM (active)

CCOc1ccc(-n2c(SCC(=O)Nc3nccs3)nc3c(c2=O)SCC3)cc1
EC50 [6]: 11.7 µM (active)
EC50 [7]: 19.1 µM (active)
EC50 [8]: 12.8 µM (active)

O=C(NCc1ccco1)Nc1cccs1
AC50 (Cytochrome P450 3A4): 20 µM (inconclusive)
AC50 (Cytochrome P450 2D6): 14.1 µM (inconclusive)
